Series [1] relates to recurrent malignant glioma. Further details: method as in PMID 32436060. The following applies: up to 500 mg BID; patients with recurrent malignant glioma; cited from earlier work.
On the set-up of series [2]: method as in PMID 28053021. The note with it: cited from earlier work.
The test system of series [3] is unresectable metastatic melanoma. The note with it: combined with Keytruda vs Keytruda alone; phase III, 2018; cited from earlier work.
Series [4] can be described thus: Solubility of CY1-4 (excess sample shaken in a 37 °C water bath for 48 h, HPLC). The note with it: thermodynamic from solid. The class given is physicochemical. The method, then:
The excess MSNM@CY1-4 was placed in deionized water and was shaken in a 37 °C water bath for 48 h. The supernatant was filtered after centrifugation at 10,000 rpm, and the filtrate was collected. The CY1-4 was measured using HPLC to calculate the solubility of CY1-4.

Series [5] in a line: In vitro dissolution of CY1-4 in artificial gastric fluid (pH 1.2) and artificial intestinal fluid (pH 6.8). In kind it is physicochemical. As for the experimental part:
MSNM@CY1-4 (equivalent to 3 mg of CY1-4) was dispersed in 600 mL artificial gastric fluid (pH 1.2 containing 0.1% (v/v) Tween-80) or 600 mL artificial intestinal fluid (pH 6.8 containing 0.1% (v/v) Tween-80) at 37 °C and 100 rpm. Samples were taken at 0, 2, 5, 12, 20, 40, and 60 min. Each sample was filtered through a 0.22 μm filter membrane and determined by HPLC.

Data on 3 molecules can be found in paper PMC11676189, “Improving the Anti-Tumor Effect of Indoleamine 2,3-Dioxygenase Inhibitor CY1-4 by CY1-4 Nano-Skeleton Drug Delivery System” (Journal of Functional Biomaterials, 2024).

Broadly, the solubility is how much of the substance goes into solution per volume. High values mean a readily soluble substance, low ones a poorly soluble substance.

Molecules are shown by their SMILES. In brackets after ≈: the same amount, converted by molar mass. Where only a bound is given, the exact number is not on record here.

With `O=C1CC(c2c[nH]c3ccc(F)cc23)C(=O)N1` (stereo not drawn) [PF-06840003], in series [1], the Tolerability entry is “generally well tolerated”.

As for `NS(=O)(=O)NCCNc1nonc1C(=NO)Nc1ccc(F)c(Br)c1` [Epacadostat], the Tolerability result in series [2] is recorded as “well tolerated”. In series [2] (dose of ≥100 mg BID), the “Inhibition of IDO1 activity” value is “could effectively inhibit the activity of IDO1”. For the same molecule, the Progression-free survival result in series [3] is on record as “failed to significantly improve the progression-free survival”.

Regarding `O=C1c2cc([N+](=O)[O-])ccc2-n2c1nc1ncccc1c2=O` [CY1-4, 9-nitropyridine [2′,3′:4,5] pyrimido [1,2-α] indole-5,11-dione], the solubility at 48 h was < 100 µg/mL in series [4] (deionized water, water); 1.16 ± 0.08 µg/mL (≈ 3.94 µM) in series [4] (deionized water, water, 48 h); 1.36 ± 0.04 µg/mL (≈ 4.62 µM) in series [4] (pH 1.2 medium, pH 1.2, simulated gastric fluid, pH = 1.2); 1.19 ± 0.09 µg/mL (≈ 4.04 µM) in series [4] (pH 6.8 medium, pH 6.8, aqueous buffer, pH = 6.8). In addition, the CY1-4 dissolved result was “about 6%” in series [5] (artificial gastric fluid pH 1.2, 5 min) and “about 4%” in series [5] (artificial intestinal fluid pH 6.8, 5 min). Besides, the “CY1-4 dissolved after the 5 min maximum (decreased to)” value in series [5] (artificial gastric fluid pH 1.2, after 5 min) was “about 1%”; in series [5] (artificial intestinal fluid pH 6.8, after 5 min) it was “about 1%”.
